According to patent US20120301468A1, “ANTI-MN ANTIBODIES AND METHODS OF USING SAME” (BAYER HEALTHCARE LLC, priority 2005, published 2012):

What was measured:
[1] = system: HCT-15 multi-drug resistant (P-gp) CRC xenograft; test: HCT-15 multi-drug resistant xenograft model; assay type: in vivo, NCr nu/nu mice; details: HCT-15 MDR model
Experimental: To examine the effect of 3ee9/MMAE in a multi-drug resistance model, female NCr nu/nu mice were implanted subcutaneously (s.c.) with 5×10^6 HCT-15 cells. HCT-15 is a multi-drug resistant (MDR) line that over-expresses P-glycoprotein (P-gp). […] 3ee9/MMAE, Taxol, and Gemcitabine were administered when mice had established tumors with mean weight of ˜150 mg. Gemcitabine, a pyrimidine analog that is not a P-gp substrate was used as a positive control.

MN = MN (Homo sapiens, UniProt Q16790); test: Immunoprecipitation of biotinylated cell surface proteins; assay type: binding; design: incubated with cell lysates of MN+ (Pc3 mm2) and MN− (DLD-1) cell lines that had been selectively labeled with biotin; endogenous in cells; host or cells: PC-3 mm2 (MN+); DLD-1 as the MN- control; details: Table 4 profile
Experimental: To further explore specificity, various candidate antibodies including the antibody portion of 3ee9/MMAE (3ee9) and the reference antibody G250 were incubated with cell lysates of MN+ (Pc3 mm2) and MN− (DLD-1) cell lines that had been selectively labeled with biotin. Complexes between the antibodies and cellular proteins were immuno-precipitated and the co-precipitated antigens visualized using immunoblots developed with enzyme-linked streptavidin.

Colo-205 CRC xenograft = test: Colo-205 subcutaneous xenograft model
Excerpt: The in vivo anti-tumor effect of 3ee9/MMAE was examined in 6 different human xenograft tumor models. These models were established through subcutaneous implantation of human tumor cells into female athymic NCr (nu/nu) mice (Taconic, N.Y.). The human tumor xenograft models evaluated included the MaTu human mammary carcinoma model, the HT-29 and Colo-205 human colo-rectal carcinoma (CRC) models, PC3MM2 prostate carcinoma model, the HCT-15 multi-drug resistant (P-gp) CRC model, and the MiaPaCa2 human pancreatic model. PBS was used as a vehicle, and dosing solutions were prepared fresh daily. The dosing volume was 0.1 mL/10 g (10 mL/kg).
The length and width of each tumor were measured using an electronic caliper 2-3 times per week, and tumor weights (mg) were calculated based on the formula of [length (mm)×width (mm)^2]/2. All data, including daily observations, obtained throughout the course of the study were documented in Anti-tumor Data Acquisition System (ADAS). […] Tumor growth inhibition (TGI) was calculated as (1-T/C)×100, where T=final tumor weights from a treated group after the last dose, and C=final tumor weights from the control group after the last dose. In addition, anti-tumor efficacy was measured as the incidence of responses (or responders or regressions) defined as tumors with ≦50% of their initial size. A minimum duration of 7 days is required for a response to be considered durable.
The anti-tumor activity of 3ee9/MMAE was next evaluated against human prostate (PC-3 mm2) and CRC (Colo-205) tumor xenografts. Female NCr nu/nu mice were implanted subcutaneously (s.c.) either with 5×10^6 PC3 mm2 or Colo-205 cells. Treatment was initiated when tumors were of an average size of approximately 125-150 mg. The general health of mice was monitored and recorded daily. Tumor dimensions and body weights were recorded twice a week starting with the first day of treatment.
In the PC3 mm2 and Colo-205 studies, 3ee9/MMAE was administered intravenously (i.v.) once every 4th day for a total of 3 injections (Q4Dx3) at doses of 1, 3, 10 and 30 mg/kg and 1.25, 2.5, 5 and 10 mg/kg, respectively.
The feasibility of using 3ee9/MMAE in conjunction with other cancer chemotherapeutic agents was investigated. Xeloda® is used as first line treatment of patients with metastatic colorectal carcinoma. The activity and tolerability of combined therapy using 3ee9/MMAE and Xeloda® was evaluated. 3ee9/MMAE was administered i.v. on a Q4Dx3 schedule and at dose levels of 1.25, 2.5 and 10 mg/kg. Xeloda® was administered orally once daily for 9 days at dose levels of 250 and 500 mg/kg.

[2] = Colo-205, 1.25 mg/kg/inj Q4D × 3 IV
[3] = Colo-205, 2.5 mg/kg/inj Q4D × 3 IV
[4] = Colo-205, 10 mg/kg/inj Q4D × 3 IV

3ee9/MMAE: human anti-MN IgG1 antibody 3ee9 conjugated to Monomethylauristatin E (MMAE)
anti-tumor effect [1]: failed to produce any significant anti-tumor effect | Immunoprecipitation (MN): specific | % Inhibition (T/C) (d 17) (Colo-205 CRC xenograft; [2]): 30.6% | % Regressions (Colo-205 CRC xenograft; [2]): 0% | % Weight Loss (d 17) (Colo-205 CRC xenograft; [2]): 0.5% | TGI (Colo-205 CRC xenograft; Colo-205, 2.5 mg/kg i.v. Q4Dx3, end of dosing): > 70% | % Inhibition (T/C) (d 17) (Colo-205 CRC xenograft; [3]): 73% | % Regressions (Colo-205 CRC xenograft; [3]): 0% | % Weight Loss (d 17) (Colo-205 CRC xenograft; [3]): 0.1% | responses (regressions) (Colo-205 CRC xenograft; Colo-205, 5 mg/kg Q4Dx3): 40% | responses (regressions) (Colo-205 CRC xenograft; Colo-205, 10 mg/kg Q4Dx3): 80% | % Inhibition (T/C) (d 17) (Colo-205 CRC xenograft; [4]): 96.2% | % Regressions (Colo-205 CRC xenograft; [4]): 80% | % Weight Loss (d 17) (Colo-205 CRC xenograft; [4]): 0.9% | TGI (Colo-205 CRC xenograft; Colo-205, 5 and 10 mg/kg i.v. Q4Dx3, end of dosing): > 90% | TGI (Colo-205 CRC xenograft; Colo-205, alone 1.25 mg/kg i.v. Q4Dx3): 31% | TGI (Colo-205 CRC xenograft; Colo-205, alone 2.5 mg/kg i.v. Q4Dx3): 73% | response rate (Colo-205 CRC xenograft; Colo-205, alone 10 mg/kg): 80% | TGI (Colo-205 CRC xenograft; Colo-205, alone 10 mg/kg i.v. Q4Dx3): 96% | anti-tumor effect (Colo-205 CRC xenograft; Colo-205, lowest dose, 1 mg/kg): relatively ineffective | anti-tumor effects (Colo-205 CRC xenograft; Colo-205 human colo-rectal cancer xenograft model): anti-tumor effects were seen
